Key:
[1] = Evaluation of phase transition temperature by polarizing microscope; assay type: physicochemical; settings: for TNi(° C.) Isotropic Phase Transition Point / Tsm—N(° C.) Sm—N Transition Point: during temperature increase; for Phase Transition Temperature Evaluation of Decrease: versus comparative compound with the same Ar and side chain portion of Formula (Ia)
Text: Here, the temperature at which the compound transitions from the smectic phase to the nematic phase may be easily measured by observation of the composition employing polarized light microscopy. For example, in the nematic phase, a schlieren texture specific to the nematic phase is observed, while the texture transitions to a focal conic fan texture in a smectic A phase. Therefore, the phase transition temperature can be measured by observing the textures with a polarizing microscope while increasing or decreasing the temperature.
The phase transition temperatures of the synthesized liquid crystal compounds of the Examples and Comparative Examples were observed using a polarizing microscope to evaluate the degrees of temperature decrease. Specifically, the compounds of the Examples were compared to the compounds of the Comparative Examples, which have different structures for the side chain portions thereof. That is, the phase transition temperature of a compound of a Comparative Example having Ar (the aromatic ring at the center of General Formula 1) in common with the Examples and a side chain portion represented by Formula (Ia) below was used as a reference. Evaluations of A through C were assigned according to the degree of temperature decrease from the reference phase transition temperature.
(§1) For example, compound (I-1) and (I-2) were compared to Comparative Compound (Ia-1), and Compound (III-3) was compared to Comparative Compound (IIIa-3). The evaluation was carried out based on the following criteria.
A: decrease in melting point or Sm-N (smectic-nematic) transition temperature is 20° C. or greater
B: decrease in melting point or Sm-N (smectic-nematic) transition temperature is 5° C. or greater and less than 20° C.
C: decrease in melting point or Sm-N (smectic-nematic) transition temperature is less than 5° C.
With respect to the phase transition temperature, the numerical value in parentheses represents the numerical value during temperature decrease, and other numerical values represent a numerical value during temperature increase.

[2] = Measurement and evaluation of solubility in MEK and CPN; assay type: physicochemical; design: key to Solubility Evaluation: A: solubility improved twofold or greater in plural solvents or a single solvent; B: solubility was the same or improved up to twofold in plural solvents or a single solvent; C: no improvement in solubility in plural solvents or a single solvent; settings: for Solubility CPN wt %: cyclopentanone; for Solubility CPN wt % / Solubility MEK wt %: room temperature, visual observation, 5 wt % increments; for Solubility MEK wt %: methyl ethyl ketone; for Solubility Evaluation: versus comparative compound with the same Ar and side chain portion of Formula (Ia)
Method: Solubility measurements of the synthesized liquid crystal compounds were conducted by the following method. 50 mg of each compound was weighted into a 1.5 mL sample bottle, and solvent was added until the solid component became 40 wt % (75 mg). The solubility was determined to be 40 wt % if clear under visual observation after shaking well manually at room temperature. If undissolved residue was present, solvent was added such that the solid component became 35 wt % (+18 mg). The solubility was determined to be 35 wt % if clear under visual observation after shaking well manually at room temperature. If undissolved residue was present, solvent was added such that the solid component became 30 wt %. Similar operations were performed in increments of 5 wt %, and repeated until the solid component became 5 wt %. If undissolved residue was present, the solubility was determined to be less than 5 wt % (<5 wt %), and measurements were completed. MEK (methyl ethyl ketone) and CPN (cyclopentanone) were utilized as solvents for measuring solubility.
The measured values of solubility were evaluated. The evaluations were conducted by using solubility of a compound of a Comparative Example having Ar (the aromatic ring at the center of General Formula 1) in common with the Examples and a side chain portion represented by Formula (Ia) as a reference, in a manner similar to that in the evaluation of the phase transition temperature. Evaluations of A through C were assigned according to the degree of improvement in solubility from the reference solubility.
as §1
A: solubility improved twofold or greater in plural solvents or a single solvent
B: solubility was the same or improved up to twofold in plural solvents or a single solvent
C: no improvement in solubility in plural solvents or a single solvent

Row | SMILES | melting point [°C] | TNi(° C.) Isotropic Phase Transition Point [1] | Tsm—N(° C.) Sm—N Transition Point [1] [°C] | Phase Transition Temperature Evaluation of Decrease [1] | Solubility CPN wt % [2] [wt %] | Solubility MEK wt % [2] [wt %] | Solubility Evaluation [2]
1 | C=CCCCCCCCCC(=O)OCCc1ccc(OC(=O)[C@H]2CC[C@H](C(=O)Oc3ccc(OC(=O)[C@H]4CC[C@H](C(=O)Oc5ccc(CCOC(=O)CCCCCCCCC=C)cc5)CC4)c4c3SC(=C(C#N)C#N)S4)CC2)cc1 [Compound I-14] | 126 | 185 °C | 179 | B (decrease in melting point or Sm-N (smectic-nematic) transition temperature is 5 °C or greater and less than 20° C.) | 25 | 10 | A (solubility improved twofold or greater in plural solvents or a single solvent)
2 | N#CC(C#N)=C1Sc2c(OC(=O)[C@H]3CC[C@H](C(=O)Oc4ccc(CCOC(=O)CCCCCCCCC5CO5)cc4)CC3)ccc(OC(=O)[C@H]3CC[C@H](C(=O)Oc4ccc(CCOC(=O)CCCCCCCCC5CO5)cc4)CC3)c2S1 (stereo partly drawn) [Compound I-15] | 127 | 190 °C | – | A (decrease in melting point or Sm-N (smectic-nematic) transition temperature is 20 °C or greater) | 25 | 10 | A (solubility improved twofold or greater in plural solvents or a single solvent)
3 | C=CC(=O)OCCCCOC(=O)Cc1ccc(OC(=O)[C@H]2CC[C@H](C(=O)Oc3ccc(OC(=O)[C@H]4CC[C@H](C(=O)Oc5ccc(CC(=O)OCCCCOC(=O)C=C)cc5)CC4)c4c3SC(=C(C#N)C#N)S4)CC2)cc1 [II-8] | 102 | 176 °C | 138 | A (decrease in melting point or Sm-N (smectic-nematic) transition temperature is 20 °C or greater) | 20 | 10 | A (solubility improved twofold or greater in plural solvents or a single solvent)
4 | C=CC(=O)OCCOC(=O)Cc1ccc(OC(=O)[C@H]2CC[C@H](C(=O)Oc3ccc(OC(=O)[C@H]4CC[C@H](C(=O)Oc5ccc(CC(=O)OCCOC(=O)C=C)cc5)CC4)c4c3SC(=C(C#N)C#N)S4)CC2)cc1 [II-9] | 116 | 210 °C | 122 | A (decrease in melting point or Sm-N (smectic-nematic) transition temperature is 20 °C or greater) | 15 | 5 | B (solubility was the same or improved up to twofold in plural solvents or a single solvent)
5 | C=CC(=O)OCCOC(=O)CCC(=O)OCCc1ccc(OC(=O)[C@H]2CC[C@H](C(=O)Oc3ccc(OC(=O)[C@H]4CC[C@H](C(=O)Oc5ccc(CCOC(=O)CCC(=O)OCCOC(=O)C=C)cc5)CC4)c4c3SC(=C(C#N)C(=O)OC)S4)CC2)cc1 [III-3] | 100 | 118 °C | – | A (decrease in melting point or Sm-N (smectic-nematic) transition temperature is 20 °C or greater) | 20 | 10 | A (solubility improved twofold or greater in plural solvents or a single solvent)
6 | C=CC(=O)OCCCCCCOc1ccc(OC(=O)[C@H]2CC[C@H](C(=O)Oc3ccc(OC(=O)[C@H]4CC[C@H](C(=O)Oc5ccc(OCCCCCCOC(=O)C=C)cc5)CC4)c4c3SC(=C(C#N)C(=O)OC)S4)CC2)cc1 [IIIa-3] | 131 | 240 °C | – | – | 10 | <5 | –
7 | C=CC(=O)OCCCCCCOc1ccc(OC(=O)[C@H]2CC[C@H](C(=O)Oc3ccc(OC(=O)[C@H]4CC[C@H](C(=O)Oc5ccc(OCCCCCCOC(=O)C=C)cc5)CC4)c4c3SC(=C(C#N)C(=O)OCCC(C)(C)O)S4)CC2)cc1 [IIIa-7] | 106 | 157 °C | – | – | 40 | 20 | –
8 | C=CC(=O)OCCOC(=O)CCC(=O)OCCc1ccc(OC(=O)[C@H]2CC[C@H](C(=O)Oc3cc(C)c(OC(=O)[C@H]4CC[C@H](C(=O)Oc5ccc(CCOC(=O)CCC(=O)OCCOC(=O)C=C)cc5)CC4)c4c3SC(=C(C#N)C#N)S4)CC2)cc1 [IV-1] | 148 | 172 °C | – | A (decrease in melting point or Sm-N (smectic-nematic) transition temperature is 20 °C or greater) | 35 | 15 | A (solubility improved twofold or greater in plural solvents or a single solvent)
9 | C=CC(=O)OCCOC(=O)CCC(=O)OCCc1ccc(OC(=O)[C@H]2CC[C@H](C(=O)Oc3cc(OCC)c(OC(=O)[C@H]4CC[C@H](C(=O)Oc5ccc(CCOC(=O)CCC(=O)OCCOC(=O)C=C)cc5)CC4)c4c3SC(=C(C#N)C#N)S4)CC2)cc1 [IV-10] | 95 | 99 °C | – | – | 40 | 40 | –
10 | C=CC(=O)OCCCCCCOc1ccc(OC(=O)[C@H]2CC[C@H](C(=O)Oc3cc(C)c(OC(=O)[C@H]4CC[C@H](C(=O)Oc5ccc(OCCCCCCOC(=O)C=C)cc5)CC4)c4c3SC(=C(C#N)C#N)S4)CC2)cc1 [IVa-1] | 189 | >250 ^ ° C. | – | – | 10 | <5 | –
11 | C=CC(=O)OCCCCCCOc1ccc(OC(=O)[C@H]2CC[C@H](C(=O)Oc3ccc(OC(=O)[C@H]4CC[C@H](C(=O)Oc5ccc(OCCCCCCOC(=O)C=C)cc5)CC4)c4c3SC(=C(C#N)C#N)S4)CC2)cc1 [Ia-1] | 148 | >210 ^ ° C. | 183 | – | 10 | <5 | –
12 | C=CC(=O)OCCCCOC(=O)[C@H]1CC[C@H](C(=O)O[C@H]2CC[C@H](C(=O)Oc3ccc(OC(=O)[C@H]4CC[C@H](OC(=O)[C@H]5CC[C@H](C(=O)OCCCCOC(=O)C=C)CC5)CC4)c4c3SC(=C(C#N)C#N)S4)CC2)CC1 [Ib-1] | 170 | 206 °C | – | C (decrease in melting point or Sm-N (smectic-nematic) transition temperature is less than 5° C.) | 10 | <5 | C
13 | C=CC(=O)OCCCCOc1ccc(C(=O)Oc2ccc(C(=O)Oc3ccc(OC(=O)c4ccc(OC(=O)c5ccc(OCCCCOC(=O)C=C)cc5)cc4)c4c3SC(=C(C#N)C#N)S4)cc2)cc1 [Ic-1] | 185 | >210^ ° C. | – | C (decrease in melting point or Sm-N (smectic-nematic) transition temperature is less than 5° C.) | <10 | <5 | C
14 | C=CC(=O)OCCOC(=O)CCC(=O)OCCc1ccc(OC(=O)[C@H]2CC[C@H](C(=O)Oc3ccc(OC(=O)[C@H]4CC[C@H](C(=O)Oc5ccc(CCOC(=O)CCC(=O)OCCOC(=O)C=C)cc5)CC4)c(/C=N/Nc4nc5ccccc5s4)c3)CC2)cc1 [VI-1] | 134 | 190 °C | – | A (decrease in melting point or Sm-N (smectic-nematic) transition temperature is 20 °C or greater) | 35 | 20 | A (solubility improved twofold or greater in plural solvents or a single solvent)

From US11072741B2, “Optically anisotropic layer, method for producing the optically anisotropic layer, a laminate, polarizing plate, display device, liquid crystal compound, method for producing the liquid crystal compound, and carboxylic acid compound” (FUJIFILM Corporation, priority 2014, dated 2021)
